Assay results reported in ChEMBL document CHEMBL5096191 (J Med Chem, 2021).

Columns and labels:
Format in all cases: functional, cell-based
[1] = target: T1, Cannabinoid receptor 2 (Homo sapiens, UniProt P34972, V36M); assay: Partial agonist activity at CBR2 V361.35M mutant (unknown origin) stably expressed in HEK293T assessed as decrease in forskolin induced cAMP level preincubated for 15 mins followed by forskolin addition incubated for 15 mins by HTRF assay
[2] = system: Cannabinoid receptor 2 (Homo sapiens), P34972 [A282M]; assay: Partial agonist activity at CBR2 A2827.36M mutant (unknown origin) stably expressed in HEK293T assessed as decrease in forskolin induced cAMP level preincubated for 15 mins followed by forskolin addition incubated for 15 mins by HTRF assay relative to control; conditions: filed as partial agonist, time 30.0 min
[3] = target: T2, Cannabinoid receptor 2 (Homo sapiens, UniProt P34972); assay: Partial agonist activity at wild type CB2 receptor (unknown origin) expressed in HEK293T assessed as increase in ERK1/2 phosphorylation incubated for 7 mins in presence of cannabidiol by AlphaScreenSureFire method relative to control; conditions: filed as partial agonist
[4] = target: T1, Cannabinoid receptor 2; assay: Partial agonist activity at CBR2 V361.35M mutant (unknown origin) expressed in HEK293T assessed as increase in ERK1/2 phosphorylation incubated for 7 mins in presence of cannabidiol by AlphaScreenSureFire method
[5] = target: T2, Cannabinoid receptor 2; assay: Partial agonist activity at wild type CB2 receptor (unknown origin) expressed in HEK293T assessed as increase in picometer shifts of reflected light wavelengths in presence of cannabidiol by DMR assay relative to control; conditions: filed as partial agonist

T1 sequence (P34972 whole entry V36M): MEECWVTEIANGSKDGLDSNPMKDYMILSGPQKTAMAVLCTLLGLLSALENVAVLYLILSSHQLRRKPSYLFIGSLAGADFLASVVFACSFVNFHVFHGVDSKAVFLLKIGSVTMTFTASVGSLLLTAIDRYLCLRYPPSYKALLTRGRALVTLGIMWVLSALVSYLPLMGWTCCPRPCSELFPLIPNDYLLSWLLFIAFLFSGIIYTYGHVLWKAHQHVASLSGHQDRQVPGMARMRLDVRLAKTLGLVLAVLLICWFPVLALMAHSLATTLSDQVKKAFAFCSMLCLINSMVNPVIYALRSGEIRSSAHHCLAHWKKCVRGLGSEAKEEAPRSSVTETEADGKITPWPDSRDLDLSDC
T2 sequence (P34972 whole entry): as the sequence (P34972 whole entry V36M) above, with M36V counted along it
Chain of Cannabinoid receptor 2 (Homo sapiens), P34972 [A282M] (P34972 whole entry A282M): as the sequence (P34972 whole entry V36M) above, with M36V, A282M counted along it

CCCC(C)(C)c1cc(O)c2c(c1)OC(C)(C)[C@@H]1CC=C(C)C[C@@H]21
EC50 [1]: 12.6 nM | Emax [2]: 45.4% | Emax [3]: 250% | EC50 [4]: 39.8 nM | Emax [5]: 117%
